Laboratory results from patent US20230265151A1, “GIP/GLP1 CO-AGONIST COMPOUNDS” (priority 2020, published 2023).
Read-outs that look alike come from different tables or passages of the source. *1 amine or outer side, *2 acyl side, *3 side chain or, on linkers, in order; H or OH if unused. Where a SMILES comes first, the peptide text is derived from it. Side-chain parts run from the residue outwards. [ ]: non-standard residue; d: D form. The star is where a group is joined. αMePhe(2-F) = C[C@](N)(Cc1ccccc1F)C(=O)O; γGlu = O=C(O)[C@H](CCC(=O)[*:2])N[*:1]; C14 diacid = O=C(O)CCCCCCCCCCCCC(=O)*; αMeF = C[C@](N)(Cc1ccccc1)C(=O)O; 4Pal = N[C@@H](Cc1ccncc1)C(=O)O; αMeL = CC(C)C[C@](C)(N)C(=O)O; Orn = NCCC[C@H](N)C(=O)O; AEEA = NCCOCCOCC(=O)O; Aib = CC(C)(N)C(=O)O

Columns and labels:
Assay type in all cases: cell-based
[1] = biological target: T1, hGIPR (Homo sapiens, UniProt P48546); experiment: Functional cAMP formation (HTRF) in HEK-293 clonal cells expressing hGIPR, 0.1% bovine casein, without or with 1.0% human serum albumin; conditions: for EC50: cAMP, 0.1% bovine casein (no human serum albumin), geometric mean; for Emax: read-out: hGIPR Emax, % ± SEM
T1 construct: expressed in transfected cells
T1 sequence (P48546 22-466): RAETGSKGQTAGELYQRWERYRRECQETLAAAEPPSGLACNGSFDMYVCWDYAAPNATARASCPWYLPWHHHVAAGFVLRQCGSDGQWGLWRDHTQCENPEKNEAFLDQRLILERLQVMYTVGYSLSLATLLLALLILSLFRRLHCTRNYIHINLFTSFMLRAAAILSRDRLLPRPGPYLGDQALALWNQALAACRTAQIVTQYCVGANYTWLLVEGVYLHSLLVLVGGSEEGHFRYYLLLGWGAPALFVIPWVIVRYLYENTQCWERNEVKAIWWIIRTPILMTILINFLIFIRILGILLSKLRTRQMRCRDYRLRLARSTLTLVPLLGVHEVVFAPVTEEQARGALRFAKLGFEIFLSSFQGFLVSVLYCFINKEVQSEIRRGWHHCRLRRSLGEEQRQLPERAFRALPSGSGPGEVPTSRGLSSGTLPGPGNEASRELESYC
How it was run: (§1)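 Cells were stimulated with peptide for 30 min at 37° C, then lysed in buffer carrying cAMP-d2 and anti-cAMP Eu3+-cryptate for a competitive HTRF read after at least 60 min at room temperature. The 665/620 nm ratio was converted to nM cAMP against a standard curve.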

[2] = biological target: T2, hGCGR (Homo sapiens, UniProt P47871); experiment: Functional cAMP formation (HTRF) in HEK-293 clonal cells expressing hGCGR, 0.1% bovine casein, without or with 1.0% human serum albumin
T2 construct: expressed in transfected cells
How it was run: as §1

[3] = biological target: hGLP-1R (Homo sapiens, UniProt P43220); experiment: Functional cAMP formation (HTRF) in HEK-293 clonal cells expressing hGLP-1R, 0.1% bovine casein, without or with 1.0% human serum albumin; parameters: expressed in transfected cells; conditions: for EC50: geometric mean
How it was run: as §1

[4] = HEK293, percent of maximal response to GIP(1-42)NH2, 37° C., 0.1% bovine casein, arithmetic mean
[5] = incubated at 37° C., read-out: hGIPR EC50, nM (SEM, n)
[6] = cAMP, incubated at 37° C., 0.1% bovine casein (no human serum albumin), geometric mean, read-out: hGCGR EC50, nM (SEM, n)

hGLP-1R, sequence (P43220 24-463): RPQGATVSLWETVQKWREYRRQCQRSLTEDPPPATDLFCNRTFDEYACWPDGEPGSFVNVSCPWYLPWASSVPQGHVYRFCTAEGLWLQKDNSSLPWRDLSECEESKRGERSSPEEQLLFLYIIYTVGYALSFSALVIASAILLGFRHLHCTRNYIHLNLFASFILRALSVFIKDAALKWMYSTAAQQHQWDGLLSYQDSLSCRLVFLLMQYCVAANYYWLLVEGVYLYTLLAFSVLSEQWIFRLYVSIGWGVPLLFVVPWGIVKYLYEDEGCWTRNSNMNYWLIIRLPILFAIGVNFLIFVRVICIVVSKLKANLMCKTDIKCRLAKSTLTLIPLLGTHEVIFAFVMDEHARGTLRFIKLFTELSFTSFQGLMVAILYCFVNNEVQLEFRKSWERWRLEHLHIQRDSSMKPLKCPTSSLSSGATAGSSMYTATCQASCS
T2 sequence (P47871 26-477): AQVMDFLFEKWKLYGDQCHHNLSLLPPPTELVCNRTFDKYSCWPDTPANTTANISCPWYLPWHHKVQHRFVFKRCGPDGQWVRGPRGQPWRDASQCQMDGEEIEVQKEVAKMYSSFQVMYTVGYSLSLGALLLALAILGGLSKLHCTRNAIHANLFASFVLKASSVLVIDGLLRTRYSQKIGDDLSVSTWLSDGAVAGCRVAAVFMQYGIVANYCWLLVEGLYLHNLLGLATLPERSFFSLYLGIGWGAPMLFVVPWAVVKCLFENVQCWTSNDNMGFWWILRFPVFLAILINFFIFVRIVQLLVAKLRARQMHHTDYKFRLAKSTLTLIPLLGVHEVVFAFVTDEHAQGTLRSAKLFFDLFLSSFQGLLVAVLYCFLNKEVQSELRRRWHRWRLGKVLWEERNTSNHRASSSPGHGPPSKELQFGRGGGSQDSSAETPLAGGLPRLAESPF

Which results are given for `CC[C@H](C)[C@H](NC(=O)[C@H](CCCN)NC(=O)[C@H](CC(=O)O)NC(=O)[C@H](CC(C)C)NC(=O)[C@](C)(CC(C)C)NC(=O)[C@@H](NC(=O)[C@H](CO)NC(=O)[C@H](Cc1ccncc1)NC(=O)[C@H](CC(=O)O)NC(=O)[C@H](CO)NC(=O)[C@@H](NC(=O)[C@](C)(Cc1ccccc1F)NC(=O)[C@@H](NC(=O)CNC(=O)[C@H](CCC(=O)O)NC(=O)C(C)(C)NC(=O)[C@@H](N)Cc1ccc(O)cc1)[C@@H](C)O)[C@@H](C)O)[C@@H](C)CC)C(=O)N[C@@H](C)C(=O)N[C@@H](CCC(N)=O)C(=O)NC(C)(C)C(=O)N[C@@H](CCCCNC(=O)COCCOCCNC(=O)COCCOCCNC(=O)CC[C@H](NC(=O)CCCCCCCCCOc1ccc(C(=O)O)cc1)C(=O)O)C(=O)N[C@@H](Cc1ccccc1)C(=O)N[C@H](C(=O)N[C@H](CCC(=O)O)C(=O)N[C@@](C)(Cc1ccc(O)cc1)C(=O)N[C@@H](CC(C)C)C(=O)N[C@H](C(=O)N[C@@H](CCCCNC(=O)COCCOCCNC(=O)COCCOCCNC(=O)CC[C@H](NC(=O)CCCCCCCCCOc1ccc(C(=O)O)cc1)C(=O)O)C(=O)NCC(=O)NCC(=O)N1CCC[C@H]1C(=O)N[C@@H](CO)C(=O)N[C@@H](CO)C(=O)NCC(=O)N[C@@H](C)C(=O)N1CCC[C@H]1C(=O)N1CCC[C@H]1C(=O)N1CCC[C@H]1C(=O)N[C@@H](CO)C(N)=O)[C@@H](C)CC)[C@@H](C)CC` [Example 275]?
EC50 ([1]; hGIPR EC50, nM (SEM, n), 37° C.): 0.0152 nM; EC50 ([2]; hGCGR EC50, nM (SEM, n), 0.1% bovine casein and 1.0% human serum albumin, 37° C., geometric mean): > 9950 nM; EC50 ([2]; hGCGR EC50, nM (SEM, n), cAMP, 37° C., 0.1% bovine casein (no human serum albumin), geometric mean): > 9950 nM; Emax ([3]; HEK293, read-out: hGLP-1R Emax, % ± SEM, cAMP, 37° C., 0.1% bovine casein, percent of maximal response to GLP-1(7-36)NH2, arithmetic mean): 110%; EC50 ([3]; hGLP-1R EC50, nM (SEM, n), 0.1% bovine casein and 1.0% human serum albumin, 37° C.): 33.5 nM

`CC[C@H](C)[C@H](NC(=O)[C@H](CC(C)C)NC(=O)[C@](C)(Cc1ccc(O)cc1)NC(=O)[C@@H](CCC(=O)O)NC(=O)[C@@H](NC(=O)[C@H](Cc1ccccc1)NC(=O)[C@H](CCC(=O)O)NC(=O)C(C)(C)NC(=O)[C@H](CCC(N)=O)NC(=O)[C@H](C)NC(=O)[C@H](CCCCNC(=O)COCCOCCNC(=O)COCCOCCNC(=O)CC[C@H](NC(=O)CCCCCCCCCCCCC(=O)O)C(=O)O)NC(=O)[C@H](CCCN)NC(=O)[C@H](CC(=O)O)NC(=O)[C@H](CC(C)C)NC(=O)[C@](C)(CC(C)C)NC(=O)[C@@H](NC(=O)[C@H](CO)NC(=O)[C@H](CC1CCCCC1)NC(=O)[C@H](CC(=O)O)NC(=O)[C@H](CO)NC(=O)[C@@H](NC(=O)[C@](C)(Cc1ccccc1F)NC(=O)[C@@H](NC(=O)CNC(=O)[C@H](CCC(=O)O)NC(=O)C(C)(C)NC(=O)[C@@H](N)Cc1ccc(O)cc1)[C@@H](C)O)[C@@H](C)O)[C@@H](C)CC)[C@@H](C)CC)C(=O)N[C@@H](CCC(=O)O)C(=O)NCC(=O)NCC(=O)N[C@@H](CCCCNC(=O)COCCOCCNC(=O)COCCOCCNC(=O)CC[C@H](NC(=O)CCCCCCCCCCCCC(=O)O)C(=O)O)C(=O)N[C@@H](CO)C(=O)N[C@@H](CO)C(=O)NCC(=O)N[C@@H](C)C(=O)N1CCC[C@H]1C(=O)N1CCC[C@H]1C(=O)N1CCC[C@H]1C(=O)N[C@@H](CO)C(N)=O` [Example 98] was tested. Which Emax ([1]; HEK293, 0.1% bovine casein and 1.0% human serum albumin, 37° C., percent of maximal response to GIP(1-42)NH2) did it give?
The Emax was 95%.

And the Emax [1, 4]?
Its Emax is 97.7 ± 2.54%.

What about the EC50 [1, 5] of the same compound?
The EC50 was 0.0148 nM.

What about the EC50 ([2]; 0.1% bovine casein and 1.0% human serum albumin, 37° C., geometric mean, read-out: hGCGR EC50, nM (SEM, n)) of the same compound?
Its EC50 is greater than 9950 nM.

What about the EC50 [2, 6] of the same compound?
Its EC50 is greater than 9950 nM.

What about the Emax ([3]; HEK293, 0.1% bovine casein and 1.0% human serum albumin, 37° C., percent of maximal response to GLP-1(7-36)NH2, read-out: hGLP-1R Emax, % ± SEM) of the same compound?
Its Emax is 97.5%.

And the EC50 ([3]; cAMP, incubated at 37° C., 0.1% bovine casein (no human serum albumin), read-out: hGLP-1R EC50, nM (SEM, n))?
The EC50 was 0.227 nM.

With `CC[C@H](C)[C@H](NC(=O)[C@H](CC(C)C)NC(=O)[C@](C)(Cc1ccc(O)cc1)NC(=O)[C@@H](CCC(=O)O)NC(=O)[C@@H](NC(=O)[C@H](Cc1ccccc1)NC(=O)[C@H](CCCCNC(=O)CCOCCOCCOCCOCCNC(=O)CC[C@H](NC(=O)CCCCCCCCCCCCC(=O)O)C(=O)O)NC(=O)C(C)(C)NC(=O)[C@H](CCC(N)=O)NC(=O)[C@H](C)NC(=O)[C@H](CCCCNC(=O)CCOCCOCCOCCOCCNC(=O)CC[C@H](NC(=O)CCCCCCCCCCCCC(=O)O)C(=O)O)NC(=O)[C@H](CCCN)NC(=O)[C@H](CC(=O)O)NC(=O)[C@H](CC(C)C)NC(=O)[C@](C)(CC(C)C)NC(=O)[C@@H](NC(=O)C(C)(C)NC(=O)[C@H](Cc1ccncc1)NC(=O)[C@H](CC(=O)O)NC(=O)[C@H](CO)NC(=O)[C@@H](NC(=O)[C@](C)(Cc1ccccc1F)NC(=O)[C@@H](NC(=O)CNC(=O)[C@H](CCC(=O)O)NC(=O)C(C)(C)NC(=O)[C@@H](N)Cc1ccc(O)cc1)[C@@H](C)O)[C@@H](C)O)[C@@H](C)CC)[C@@H](C)CC)C(=O)N[C@@H](CCC(=O)O)C(=O)NCC(=O)NCC(=O)N1CCC[C@H]1C(=O)N[C@@H](CO)C(=O)N[C@@H](CO)C(=O)NCC(=O)N[C@@H](C)C(=O)N1CCC[C@H]1C(=O)N1CCC[C@H]1C(=O)N1CCC[C@H]1C(=O)N[C@@H](CO)C(N)=O` [Example 405] as the compound, how does the Emax ([1]; HEK293, cAMP, 37° C., 0.1% bovine casein and 1.0% human serum albumin, percent of maximal response to GIP(1-42)NH2) read?
Its Emax is 74.3%.

And the Emax ([1]; HEK293, cAMP, 37° C., 0.1% bovine casein, percent of maximal response to GIP(1-42)NH2, arithmetic mean)?
Its Emax is 100%.

And the EC50 ([1]; 37° C., read-out: hGIPR EC50, nM (SEM, n))?
The EC50 was 0.0209 nM.

What about the EC50 ([2]; cAMP, 37° C., 0.1% bovine casein (no human serum albumin), geometric mean, read-out: hGCGR EC50, nM (SEM, n)) of the same compound?
The EC50 was greater than 9950 nM.

What about the EC50 ([2]; cAMP, 37° C., 0.1% bovine casein and 1.0% human serum albumin, geometric mean (SEM, n), read-out: hGCGR EC50, nM (SEM, n)) of the same compound?
Its EC50 is greater than 9950 nM.

What about the Emax ([3]; HEK293, cAMP, 37° C., 0.1% bovine casein and 1.0% human serum albumin, percent of maximal response to GLP-1(7-36)NH2, read-out: hGLP-1R Emax, % ± SEM) of the same compound?
The Emax was 78.1%.

What about the Emax ([3]; HEK293, cAMP, 37° C., 0.1% bovine casein, percent of maximal response to GLP-1(7-36)NH2, arithmetic mean, read-out: hGLP-1R Emax, % ± SEM) of the same compound?
Its Emax is 93.3%.

What about the EC50 ([3]; cAMP, 37° C., 0.1% bovine casein (no human serum albumin), read-out: hGLP-1R EC50, nM (SEM, n)) of the same compound?
The EC50 was 1.26 nM.

Which Emax [1, 4] does the source give for `CC[C@H](C)[C@H](NC(=O)[C@H](CC(C)C)NC(=O)[C@H](Cc1ccc(O)cc1)NC(=O)[C@H](CCCCNC(=O)COCCOCCNC(=O)COCCOCCNC(=O)CC[C@H](NC(=O)CCCCCCCCCCCCC(=O)O)C(=O)O)NC(=O)[C@@H](NC(=O)[C@](C)(Cc1ccccc1)NC(=O)[C@H](CCC(=O)O)NC(=O)C(C)(C)NC(=O)[C@H](CCC(N)=O)NC(=O)[C@H](C)NC(=O)[C@H](CCCCNC(=O)COCCOCCNC(=O)COCCOCCNC(=O)CC[C@H](NC(=O)CCCCCCCCCCCCC(=O)O)C(=O)O)NC(=O)[C@H](CCCN)NC(=O)[C@H](CC(=O)O)NC(=O)[C@H](CC(C)C)NC(=O)[C@](C)(CC(C)C)NC(=O)[C@@H](NC(=O)[C@H](CO)NC(=O)[C@H](Cc1ccncc1)NC(=O)[C@H](CC(=O)O)NC(=O)[C@H](CO)NC(=O)[C@@H](NC(=O)[C@](C)(Cc1ccccc1F)NC(=O)[C@@H](NC(=O)CNC(=O)[C@H](CCC(=O)O)NC(=O)C(C)(C)NC(=O)[C@@H](N)Cc1ccc(O)cc1)[C@@H](C)O)[C@@H](C)O)[C@@H](C)CC)[C@@H](C)CC)C(=O)N[C@@H](CCC(=O)O)C(=O)NCC(=O)NCC(=O)N1CCC[C@H]1C(=O)N[C@@H](CO)C(=O)N[C@@H](CO)C(=O)NCC(=O)N[C@@H](C)C(=O)N1CCC[C@H]1C(=O)N1CCC[C@H]1C(=O)N1CCC[C@H]1C(=O)N[C@@H](CO)C(N)=O` [Example 85] (H-Y[Aib]EGT[αMePhe(2-F)]TSD[4Pal]SI[αMeL]LD[Orn]K([AEEA-AEEA-γGlu-C14 diacid])AQ[Aib]E[αMeF]IK([AEEA-AEEA-γGlu-C14 diacid])YLIEGGPSSGAPPPS-NH2) here?
The Emax was 91.7%.

And the EC50 [1, 5]?
Its EC50 is 0.0312 nM.

And the EC50 [2, 6]?
Its EC50 is greater than 9950 nM.

And the Emax ([3]; HEK293, percent of maximal response to GLP-1(7-36)NH2, 37° C., 0.1% bovine casein, arithmetic mean, read-out: hGLP-1R Emax, % ± SEM)?
The Emax was 95.3%.
